Here are results for one compound from ChEMBL document CHEMBL4311992, “Discovery of 3-(((9H-purin-6-yl)amino)methyl)-4,6-dimethylpyridin-2(1H)-one derivatives as novel tubulin polymerization inhibitors for treatment of cancer” (Eur J Med Chem, 2019).

For series [1], the system named is Epidermal growth factor receptor (Homo sapiens), P00533 [L858R]. Put plainly: Inhibition of recombinant human EGFR L858R mutant (696 to end residues) assessed as residual activity at 10 uM using poly(Glu, Tyr) 4:1 as substrate measured after 40 mins in presence of [gamma33P]ATP by scintillation counting method.
The target in series [2] is Mitogen-activated protein kinase 8 (Homo sapiens) (UniProt P45983). Put plainly: Inhibition of recombinant full-length human JNK1alpha1 assessed as residual activity at 10 uM using ATF2 as substrate measured after 40 mins in presence of [gamma33P]ATP by scintillation counting method.
For series [3], the target named is Cyclin-dependent kinase 13/Cyclin-K (Homo sapiens) (UniProt Q14004+O75909). Put plainly: Inhibition of recombinant full length human CDK13/cyclinK assessed as residual activity at 10 uM using RSRSRSRSRSRSRSR as substrate measured after 120 mins in presence of [gamma33P]ATP by scintillation counting method. It counts as protein-complex assay.
Series [4] has as its target Serine/threonine-protein kinase ULK2 (Homo sapiens) (UniProt Q8IYT8). Put plainly: Inhibition of human ULK2 (1 to 306 residues) using casein as substrate measured after 40 mins in presence of [gamma33P]ATP by scintillation counting method. On the set-up: scale not given: the % may be the effect or the level left.
For series [5], the target named is LIM domain kinase 1 (Homo sapiens) (UniProt P53667). As to the kind of experiment: Inhibition of recombinant human LIMK1 (285 to 638 residues) assessed as residual activity at 10 uM using cofilin as substrate measured after 40 mins in presence of [gamma33P]ATP by scintillation counting method.
Series [6] concerns the target MAP/microtubule affinity-regulating kinase 4 (Homo sapiens) (UniProt Q96L34). As to the kind of experiment: Inhibition of recombinant full-length human MARK4 assessed as residual activity at 10 uM using KKKVSRSGLYRSPSMPENLNRPR as substrate measured after 40 mins in presence of [gamma33P]ATP by scintillation counting method.
For series [7], the system named is Serine/threonine-protein kinase Chk2 (Homo sapiens), O96017 [I157T]. As to the kind of experiment: Inhibition of recombinant human CHK2 I157T mutant (5 to end residues) assessed as residual activity at 10 uM using KKKVSRSGLYRSPSMPENLNRPR as substrate measured after 40 mins in presence of [gamma33P]ATP by scintillation counting method.
In series [8] the target is LIM domain kinase 2 (Homo sapiens) (UniProt P53671). As to the kind of experiment: Inhibition of recombinant human LIMK2 assessed as residual activity at 10 uM by radiometric method.
For series [9], the target named is Proto-oncogene tyrosine-protein kinase receptor Ret (Homo sapiens) (UniProt P07949). As to the kind of experiment: Inhibition of human Ret (658 to end residues) using KKKSPGEYVNIEFG as substrate measured after 40 mins in presence of [gamma33P]ATP by scintillation counting method. On the set-up: scale not given: the % may be the effect or the level left.
For series [10], the target named is Tyrosine-protein kinase Fgr (Homo sapiens) (UniProt P09769). As to the kind of experiment: Inhibition of recombinant human FGR (2 to end residues) assessed as residual activity at 10 uM using poly(Glu, Tyr) 4:1 as substrate measured after 40 mins in presence of [gamma33P]ATP by scintillation counting method.
The target in series [11] is Cyclin-dependent kinase-like 4 (Homo sapiens) (UniProt Q5MAI5). As to the kind of experiment: Inhibition of human CDKL4 assessed as residual activity at 10 uM by radiometric method.
The target of series [12] is Serine/threonine-protein kinase VRK2 (Homo sapiens) (UniProt Q86Y07). Put plainly: Inhibition of human VRK2 (1 to 336 residues) using casein as substrate measured after 40 mins in presence of [gamma33P]ATP by scintillation counting method. The arrangement: scale not given: the % may be the effect or the level left.
Series [13] has as its target Calcium/calmodulin-dependent protein kinase type II subunit gamma (Homo sapiens) (UniProt Q13555). As to the kind of experiment: Inhibition of recombinant full-length human CaMK2gamma (1 to 330 residues) assessed as residual activity at 10 uM using calmodulin as substrate measured after 40 mins in presence of [gamma33P]ATP by scintillation counting method.
The target of series [14] is Rhodopsin kinase GRK7 (Homo sapiens) (UniProt Q8WTQ7). As to the kind of experiment: Inhibition of recombinant full-length human GRK7 assessed as residual activity at 10 uM using casein as substrate measured after 40 mins in presence of [gamma33P]ATP by scintillation counting method.
Series [15] addresses Serine/threonine-protein kinase 17A (Homo sapiens) (UniProt Q9UEE5). As to the kind of experiment: Inhibition of recombinant full-length human DRAK1 assessed as residual activity at 10 uM using KKLNRTLSFAEPG as substrate measured after 40 mins in presence of [gamma33P]ATP by scintillation counting method.
The target in series [16] is Protein-tyrosine kinase 2-beta (Homo sapiens) (UniProt Q14289). Put plainly: Inhibition of recombinant full-length human Pyk2 assessed as residual activity at 10 uM using poly(Glu, Tyr) 4:1 as substrate measured after 40 mins in presence of [gamma33P]ATP by scintillation counting method.
Series [17] addresses Tyrosine-protein kinase Lyn (Homo sapiens) (UniProt P07948). As to the kind of experiment: Inhibition of recombinant full-length human Lyn assessed as residual activity at 10 uM using poly(Glu, Tyr) 4:1 as substrate measured after 40 mins in presence of [gamma33P]ATP by scintillation counting method.
The species named for the next series is Homo sapiens. As to the kind of experiment: Inhibition of recombinant human DDR1 V833L mutant (492 to end residues) assessed as residual activity at 10 uM using KKKSPGEYVNIEFG as substrate measured after 40 mins in presence of [gamma33P]ATP by scintillation counting method.
For series [18], the target named is Ephrin type-B receptor 3 (Homo sapiens) (UniProt P54753). As to the kind of experiment: Inhibition of recombinant human EphB3 (599 to 920 residues) assessed as residual activity at 10 uM using poly (Glu, Tyr) 4:1 as substrate measured after 40 mins in presence of [gamma33P]ATP by scintillation counting method.
The nature of series [19]: Toxicity in nude BALB/c mouse assessed as change in ALT level at 40 to 80 mg/kg, po once daily for 4 weeks measured post-last dose. It counts as organism-based. To be noted: in vivo, 672 h.
A short description of series [20]: Renal toxicity in nude BALB/c mouse at 80 mg/kg, po administered once daily for 4 weeks measured post-last dose by hematoxylin and eosin staining-based assay. It counts as organism-based. The settings on record: in vivo, 672 h.
The target in series [21] is Serine/threonine-protein kinase ICK (Homo sapiens) (UniProt Q9UPZ9). As to the kind of experiment: Inhibition of recombinant human ICK (1 to 312 residues) assessed as residual activity at 10 uM using RRRFRPASPLRGPPK as substrate measured after 40 mins in presence of [gamma33P]ATP by scintillation counting method.
Series [22] has as its target Mitogen-activated protein kinase kinase kinase kinase 5 (Homo sapiens) (UniProt Q9Y4K4). As to the kind of experiment: Inhibition of recombinant full-length human MAP4K5 assessed as residual activity at 10 uM using myelin basic protein as substrate measured after 40 mins in presence of [gamma33P]ATP by scintillation counting method.
Series [23] deals with 5'-AMP-activated protein kinase catalytic subunit alpha-2 (Homo sapiens) (UniProt P54646). As to the kind of experiment: Inhibition of recombinant full-length human AMPKalpha2 assessed as residual activity at 10 uM using AMARAASAAALARRR as substrate measured after 40 mins in presence of [gamma33P]ATP by scintillation counting method.
Sequence of 5'-AMP-activated protein kinase catalytic subunit alpha-2 (Homo sapiens) (P54646 whole entry, looked up): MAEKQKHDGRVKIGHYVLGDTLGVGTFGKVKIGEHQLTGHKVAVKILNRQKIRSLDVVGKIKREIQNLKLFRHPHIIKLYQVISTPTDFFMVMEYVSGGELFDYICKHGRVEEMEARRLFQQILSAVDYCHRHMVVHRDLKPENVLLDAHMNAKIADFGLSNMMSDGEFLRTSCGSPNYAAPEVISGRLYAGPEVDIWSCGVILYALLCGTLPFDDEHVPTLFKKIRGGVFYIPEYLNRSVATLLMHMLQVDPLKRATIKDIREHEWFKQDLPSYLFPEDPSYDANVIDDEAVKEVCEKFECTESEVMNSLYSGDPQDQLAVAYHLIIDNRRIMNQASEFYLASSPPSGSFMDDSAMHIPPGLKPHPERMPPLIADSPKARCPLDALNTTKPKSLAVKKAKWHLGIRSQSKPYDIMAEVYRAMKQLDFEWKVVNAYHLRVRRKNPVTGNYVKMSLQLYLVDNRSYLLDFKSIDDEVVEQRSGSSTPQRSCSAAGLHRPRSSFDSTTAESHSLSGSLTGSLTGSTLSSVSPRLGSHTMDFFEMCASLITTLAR

Sequence of LIM domain kinase 1 (Homo sapiens) (P53667 whole entry, looked up, the tested form may be a part): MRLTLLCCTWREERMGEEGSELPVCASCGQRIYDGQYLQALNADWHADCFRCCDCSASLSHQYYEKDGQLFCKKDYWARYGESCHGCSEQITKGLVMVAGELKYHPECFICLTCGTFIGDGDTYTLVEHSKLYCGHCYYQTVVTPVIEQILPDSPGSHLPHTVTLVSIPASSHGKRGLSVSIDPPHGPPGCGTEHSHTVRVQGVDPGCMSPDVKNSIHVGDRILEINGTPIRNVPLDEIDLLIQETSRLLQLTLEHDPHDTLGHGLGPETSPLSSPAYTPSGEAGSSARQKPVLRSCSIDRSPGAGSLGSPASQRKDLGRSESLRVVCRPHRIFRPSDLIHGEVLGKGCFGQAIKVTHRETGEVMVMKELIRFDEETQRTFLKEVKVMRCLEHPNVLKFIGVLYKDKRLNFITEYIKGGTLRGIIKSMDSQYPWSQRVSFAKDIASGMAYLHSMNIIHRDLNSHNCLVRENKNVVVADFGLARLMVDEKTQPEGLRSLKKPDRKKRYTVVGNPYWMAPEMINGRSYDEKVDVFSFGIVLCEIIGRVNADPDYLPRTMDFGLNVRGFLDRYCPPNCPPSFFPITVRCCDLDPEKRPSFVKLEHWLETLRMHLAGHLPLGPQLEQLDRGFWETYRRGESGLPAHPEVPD
Sequence of MAP/microtubule affinity-regulating kinase 4 (Homo sapiens) (Q96L34 whole entry): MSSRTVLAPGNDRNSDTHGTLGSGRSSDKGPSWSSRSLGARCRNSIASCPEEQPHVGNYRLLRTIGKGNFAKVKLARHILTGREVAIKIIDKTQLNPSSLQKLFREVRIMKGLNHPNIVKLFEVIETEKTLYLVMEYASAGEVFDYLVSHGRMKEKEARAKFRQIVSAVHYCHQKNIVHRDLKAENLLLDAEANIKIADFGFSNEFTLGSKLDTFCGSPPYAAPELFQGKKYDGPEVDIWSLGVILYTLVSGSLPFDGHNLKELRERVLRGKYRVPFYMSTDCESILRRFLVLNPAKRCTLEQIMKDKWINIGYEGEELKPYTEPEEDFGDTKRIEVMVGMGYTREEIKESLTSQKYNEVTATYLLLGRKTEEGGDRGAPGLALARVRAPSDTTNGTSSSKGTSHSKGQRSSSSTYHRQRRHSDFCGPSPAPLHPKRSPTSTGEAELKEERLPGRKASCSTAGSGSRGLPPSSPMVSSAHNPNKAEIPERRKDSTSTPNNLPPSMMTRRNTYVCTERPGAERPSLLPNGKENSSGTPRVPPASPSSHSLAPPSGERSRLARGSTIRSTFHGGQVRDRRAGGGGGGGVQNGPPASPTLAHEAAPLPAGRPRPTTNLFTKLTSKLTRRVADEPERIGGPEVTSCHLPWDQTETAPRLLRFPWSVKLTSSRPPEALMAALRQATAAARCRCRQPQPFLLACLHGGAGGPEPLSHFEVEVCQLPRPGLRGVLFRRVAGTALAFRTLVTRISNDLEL
Sequence of Serine/threonine-protein kinase ULK2 (Homo sapiens) (Q8IYT8 whole entry, the tested form may be a part): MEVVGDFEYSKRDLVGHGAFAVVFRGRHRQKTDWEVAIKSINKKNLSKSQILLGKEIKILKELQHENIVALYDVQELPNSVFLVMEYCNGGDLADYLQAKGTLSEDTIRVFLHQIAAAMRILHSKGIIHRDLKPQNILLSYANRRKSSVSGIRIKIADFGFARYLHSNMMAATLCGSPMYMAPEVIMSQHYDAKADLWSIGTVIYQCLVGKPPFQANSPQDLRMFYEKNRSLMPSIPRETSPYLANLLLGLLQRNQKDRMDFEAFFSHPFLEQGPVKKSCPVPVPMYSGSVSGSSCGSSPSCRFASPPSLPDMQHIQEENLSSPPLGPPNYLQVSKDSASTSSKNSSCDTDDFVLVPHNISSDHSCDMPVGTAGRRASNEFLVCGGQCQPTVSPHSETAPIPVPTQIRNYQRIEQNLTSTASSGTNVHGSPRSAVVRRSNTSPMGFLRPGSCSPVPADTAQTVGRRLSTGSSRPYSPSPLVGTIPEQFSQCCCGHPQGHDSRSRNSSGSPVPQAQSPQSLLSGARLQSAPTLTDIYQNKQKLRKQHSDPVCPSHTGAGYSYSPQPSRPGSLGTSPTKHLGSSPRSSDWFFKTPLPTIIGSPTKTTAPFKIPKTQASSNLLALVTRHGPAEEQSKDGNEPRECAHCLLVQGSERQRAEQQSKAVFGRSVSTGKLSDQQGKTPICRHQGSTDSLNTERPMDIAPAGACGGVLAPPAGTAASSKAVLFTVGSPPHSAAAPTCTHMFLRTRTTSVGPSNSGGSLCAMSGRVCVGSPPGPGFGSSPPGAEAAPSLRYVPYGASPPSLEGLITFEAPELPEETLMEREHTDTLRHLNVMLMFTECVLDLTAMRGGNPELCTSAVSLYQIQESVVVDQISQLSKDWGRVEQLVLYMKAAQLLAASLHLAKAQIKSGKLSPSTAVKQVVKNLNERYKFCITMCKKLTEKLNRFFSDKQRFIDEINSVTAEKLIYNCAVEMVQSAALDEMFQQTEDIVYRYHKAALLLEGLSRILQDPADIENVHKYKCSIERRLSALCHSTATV
Sequence of Mitogen-activated protein kinase 8 (Homo sapiens) (P45983 whole entry): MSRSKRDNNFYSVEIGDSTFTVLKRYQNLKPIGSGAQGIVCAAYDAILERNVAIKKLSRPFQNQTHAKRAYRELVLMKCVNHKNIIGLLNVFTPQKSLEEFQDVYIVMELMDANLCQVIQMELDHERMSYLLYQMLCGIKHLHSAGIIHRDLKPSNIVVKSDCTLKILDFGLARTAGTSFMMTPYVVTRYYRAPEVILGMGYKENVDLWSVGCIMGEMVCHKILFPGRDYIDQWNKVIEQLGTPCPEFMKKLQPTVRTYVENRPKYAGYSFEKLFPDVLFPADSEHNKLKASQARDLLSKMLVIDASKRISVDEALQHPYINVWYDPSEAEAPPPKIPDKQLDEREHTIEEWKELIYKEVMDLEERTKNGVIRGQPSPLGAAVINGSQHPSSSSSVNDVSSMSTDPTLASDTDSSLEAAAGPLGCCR
Sequence of Calcium/calmodulin-dependent protein kinase type II subunit gamma (Homo sapiens) (Q13555 whole entry, the tested form may be a part): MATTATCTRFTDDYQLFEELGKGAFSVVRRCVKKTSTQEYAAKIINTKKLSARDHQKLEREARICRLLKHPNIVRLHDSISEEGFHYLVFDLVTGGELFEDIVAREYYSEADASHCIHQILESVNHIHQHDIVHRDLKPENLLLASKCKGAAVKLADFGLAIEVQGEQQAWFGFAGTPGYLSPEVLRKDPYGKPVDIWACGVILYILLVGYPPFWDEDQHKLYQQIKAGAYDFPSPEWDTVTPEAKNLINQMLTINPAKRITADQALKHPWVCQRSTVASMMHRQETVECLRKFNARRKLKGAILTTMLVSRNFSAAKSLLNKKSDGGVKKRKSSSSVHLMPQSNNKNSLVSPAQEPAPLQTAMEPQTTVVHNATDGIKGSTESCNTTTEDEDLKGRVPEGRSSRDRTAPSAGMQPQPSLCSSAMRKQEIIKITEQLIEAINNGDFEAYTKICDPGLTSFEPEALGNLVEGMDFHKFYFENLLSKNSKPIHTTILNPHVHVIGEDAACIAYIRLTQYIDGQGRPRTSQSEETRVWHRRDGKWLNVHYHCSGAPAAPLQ
Sequence of Rhodopsin kinase GRK7 (Homo sapiens) (Q8WTQ7 whole entry): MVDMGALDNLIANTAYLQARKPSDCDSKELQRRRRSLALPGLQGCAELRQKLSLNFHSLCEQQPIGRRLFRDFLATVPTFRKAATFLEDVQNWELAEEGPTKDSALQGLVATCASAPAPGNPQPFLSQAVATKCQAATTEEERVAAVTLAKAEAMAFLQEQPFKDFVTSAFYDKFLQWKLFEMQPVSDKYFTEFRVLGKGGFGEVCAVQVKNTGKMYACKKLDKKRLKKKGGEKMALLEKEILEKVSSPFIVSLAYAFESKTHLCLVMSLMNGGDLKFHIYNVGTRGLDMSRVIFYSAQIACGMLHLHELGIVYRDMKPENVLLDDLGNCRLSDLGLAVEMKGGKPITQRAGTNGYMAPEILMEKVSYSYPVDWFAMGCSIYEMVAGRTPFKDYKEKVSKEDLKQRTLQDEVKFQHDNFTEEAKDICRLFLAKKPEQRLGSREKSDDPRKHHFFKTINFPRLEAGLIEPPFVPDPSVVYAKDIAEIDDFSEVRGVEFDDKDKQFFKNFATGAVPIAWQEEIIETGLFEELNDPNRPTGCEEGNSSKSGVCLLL
Sequence of Tyrosine-protein kinase Lyn (Homo sapiens) (P07948 2-512 limits assumed): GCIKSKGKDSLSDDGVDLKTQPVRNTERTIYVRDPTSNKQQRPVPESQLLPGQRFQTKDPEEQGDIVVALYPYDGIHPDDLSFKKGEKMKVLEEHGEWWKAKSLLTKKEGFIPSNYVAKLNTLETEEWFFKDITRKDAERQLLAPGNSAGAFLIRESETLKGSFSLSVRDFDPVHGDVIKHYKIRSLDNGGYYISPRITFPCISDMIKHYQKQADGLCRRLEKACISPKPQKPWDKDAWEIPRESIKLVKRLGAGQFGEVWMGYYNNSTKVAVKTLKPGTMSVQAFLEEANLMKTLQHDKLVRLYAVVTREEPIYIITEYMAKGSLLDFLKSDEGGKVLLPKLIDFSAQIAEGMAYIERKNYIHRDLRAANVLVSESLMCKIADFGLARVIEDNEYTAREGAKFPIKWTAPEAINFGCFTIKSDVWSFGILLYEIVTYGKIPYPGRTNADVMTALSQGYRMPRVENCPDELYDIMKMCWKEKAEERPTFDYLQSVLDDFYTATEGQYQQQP

As to `Cc1cc(C)c(CNc2nc(Cl)nc3c2ncn3C2CCCC2)c(=O)[nH]1`, the Activity was 104% in series [1]; 96% in series [2]; 97% in series [3]; 103% in [4]; 101% in series [5]; 123% in series [6]. Moreover, the Activity in series [7] was found to be 103%; in series [8], 106%; in [9] it was 100%; in series [10], 94.5%; in series [11] it was 116%; in [12], 102%. Besides, the Activity in [13] stood at 99.5%; in series [14], 102%; in series [15], 91.5%; in [16] it was 97%; in series [17], 119%; in the series listed under Homo sapiens, 114%. The Activity was 110% in [18]; “Non-Toxic” in series [19]; “Non-Toxic” in [20]; 114% in [21]; 130% in [22]; 117% in series [23].
